Measurements published in patent EP0726263A2, “Herbicidal (1,3,4)oxadiazoles and thiadiazoles” (American Cyanamid Company, priority 1995, dated 1996).

Columns and labels:
Assay type in all cases: in vivo
Ambrosia artemisifolia [1] = test: Herbicidal activity, preemergence test; conditions: pre; sprayed onto soil, 800 g of active material per hectare; evaluated 3 weeks after treatment
Procedure: (§1) To evaluate their herbicidal activity, compounds according to the invention are tested using a representative range of plants: TRZAW Triticum aestivum HORVW Hordeum vulgare ZEAMX Zea mays GOSHI Gossypium hirsutum HELAN Helianthus annuus GLYMA Glycine max ALOMY Alopecurus myosuroides SETVI Setaria viridis ECHCG Echinochloa crus-galli GALAP Galium aparine STEME Stellaria media VERPE Veronica persica VIOAR Viola arvensis IPOHE Ipomoea hederacea LAMPU Lamium purpureum PAPRH Papaver rhoeas MATIN Matricaria inodora AMARE Amaranthus retroflexus ABUTH Abutilon theophrasti AMBEL Ambrosia artemisifolia CHEAL Chenopodium album
(§2) The tests fall into two categories, preemergence and postemergence. The preemergence tests involve spraying a liquid formulation of the compound onto the soil in which the seeds have recently been sown. The postemergence tests involve spraying a liquid formulation of the compound onto seedling plants.
(§3) The soil used in the tests is a prepared horticultural loam.
(§4) The formulations used in the tests are prepared from solutions of the test compounds in acetone containing 0.4% by weight of an alkylphenol/ethylene oxide condensate available under the trade mark TRITON X-155. These acetone solutions are diluted with water and the resulting formulations applied at dosage levels corresponding to 800 g of active material per hectare in a volume equivalent to 900 litres per hectare.
(§5) In the preemergence tests untreated sown soil and in the postemergence tests untreated soil bearing seedling plants are used as controls.
(§6) Results of herbicide evaluation are expressed on a rating scale (0-9). The scale is based upon a visual observation of plant stand, vigor, malformation, size, chlorosis, and general plant appearance as compared to a control. Preemergence and postemergence treatments are evaluated at 3 and 2 weeks after treatment, respectively.

Matricaria inodora [2] = test: Herbicidal activity, preemergence test; conditions: pre; sprayed onto soil, 800 g of active material per hectare; evaluated 3 weeks after treatment
Procedure: as §1, §2, §3, §4, §5, §6

Setaria viridis [3] = test: Herbicidal activity, preemergence test; conditions: pre; sprayed onto soil, 800 g of active material per hectare; evaluated 3 weeks after treatment
Procedure: as §1, §2, §3, §4, §5, §6

Zea mays [4] = test: Herbicidal activity, preemergence test; conditions: pre; sprayed onto soil, 800 g of active material per hectare; evaluated 3 weeks after treatment
Procedure: as §1, §2, §3, §4, §5, §6

Amaranthus retroflexus [5] = test: Herbicidal activity, preemergence test; conditions: pre; sprayed onto soil, 800 g of active material per hectare; evaluated 3 weeks after treatment
Procedure: as §1, §2, §3, §4, §5, §6

Veronica persica [6] = test: Herbicidal activity, preemergence test; conditions: pre; sprayed onto soil, 800 g of active material per hectare; evaluated 3 weeks after treatment
Procedure: as §1, §2, §3, §4, §5, §6

Gossypium hirsutum [7] = test: Herbicidal activity, preemergence test; conditions: pre; sprayed onto soil, 800 g of active material per hectare; evaluated 3 weeks after treatment
Procedure: as §1, §2, §3, §4, §5, §6

Galium aparine [8] = test: Herbicidal activity, preemergence test; conditions: pre; sprayed onto soil, 800 g of active material per hectare; evaluated 3 weeks after treatment
Procedure: as §1, §2, §3, §4, §5, §6

Glycine max [9] = test: Herbicidal activity, preemergence test; conditions: pre; sprayed onto soil, 800 g of active material per hectare; evaluated 3 weeks after treatment
Procedure: as §1, §2, §3, §4, §5, §6

Abutilon theophrasti [10] = test: Herbicidal activity, preemergence test; conditions: pre; sprayed onto soil, 800 g of active material per hectare; evaluated 3 weeks after treatment
Procedure: as §1, §2, §3, §4, §5, §6

Triticum aestivum [11] = test: Herbicidal activity, preemergence test; conditions: pre; sprayed onto soil, 800 g of active material per hectare; evaluated 3 weeks after treatment
Procedure: as §1, §2, §3, §4, §5, §6

Ipomoea hederacea [12] = test: Herbicidal activity, preemergence test; conditions: pre; sprayed onto soil, 800 g of active material per hectare; evaluated 3 weeks after treatment
Procedure: as §1, §2, §3, §4, §5, §6

Stellaria media [13] = test: Herbicidal activity, preemergence test; conditions: pre; sprayed onto soil, 800 g of active material per hectare; evaluated 3 weeks after treatment
Procedure: as §1, §2, §3, §4, §5, §6

Hordeum vulgare [14] = test: Herbicidal activity, preemergence test; conditions: pre; sprayed onto soil, 800 g of active material per hectare; evaluated 3 weeks after treatment
Procedure: as §1, §2, §3, §4, §5, §6

Papaver rhoeas [15] = test: Herbicidal activity, preemergence test; conditions: pre; sprayed onto soil, 800 g of active material per hectare; evaluated 3 weeks after treatment
Procedure: as §1, §2, §3, §4, §5, §6

Alopecurus myosuroides [16] = test: Herbicidal activity, preemergence test; conditions: pre; sprayed onto soil, 800 g of active material per hectare; evaluated 3 weeks after treatment
Procedure: as §1, §2, §3, §4, §5, §6

Lamium purpureum [17] = test: Herbicidal activity, preemergence test; conditions: pre; sprayed onto soil, 800 g of active material per hectare; evaluated 3 weeks after treatment
Procedure: as §1, §2, §3, §4, §5, §6

Chenopodium album [18] = test: Herbicidal activity, preemergence test; conditions: pre; sprayed onto soil, 800 g of active material per hectare; evaluated 3 weeks after treatment
Procedure: as §1, §2, §3, §4, §5, §6

Ambrosia artemisifolia [19] = test: Herbicidal activity, postemergence test; conditions: post; sprayed onto seedling plants, 800 g of active material per hectare; evaluated 2 weeks after treatment
Procedure: as §1, §2, §3, §4, §5, §6

Matricaria inodora [20] = test: Herbicidal activity, postemergence test; conditions: post; sprayed onto seedling plants, 800 g of active material per hectare; evaluated 2 weeks after treatment
Procedure: as §1, §2, §3, §4, §5, §6

Setaria viridis [21] = test: Herbicidal activity, postemergence test; conditions: post; sprayed onto seedling plants, 800 g of active material per hectare; evaluated 2 weeks after treatment
Procedure: as §1, §2, §3, §4, §5, §6

Zea mays [22] = test: Herbicidal activity, postemergence test; conditions: post; sprayed onto seedling plants, 800 g of active material per hectare; evaluated 2 weeks after treatment
Procedure: as §1, §2, §3, §4, §5, §6

Amaranthus retroflexus [23] = test: Herbicidal activity, postemergence test; conditions: post; sprayed onto seedling plants, 800 g of active material per hectare; evaluated 2 weeks after treatment
Procedure: as §1, §2, §3, §4, §5, §6

Veronica persica [24] = test: Herbicidal activity, postemergence test; conditions: post; sprayed onto seedling plants, 800 g of active material per hectare; evaluated 2 weeks after treatment
Procedure: as §1, §2, §3, §4, §5, §6

Gossypium hirsutum [25] = test: Herbicidal activity, postemergence test; conditions: post; sprayed onto seedling plants, 800 g of active material per hectare; evaluated 2 weeks after treatment
Procedure: as §1, §2, §3, §4, §5, §6

Galium aparine [26] = test: Herbicidal activity, postemergence test; conditions: post; sprayed onto seedling plants, 800 g of active material per hectare; evaluated 2 weeks after treatment
Procedure: as §1, §2, §3, §4, §5, §6

Glycine max [27] = test: Herbicidal activity, postemergence test; conditions: post; sprayed onto seedling plants, 800 g of active material per hectare; evaluated 2 weeks after treatment
Procedure: as §1, §2, §3, §4, §5, §6

Abutilon theophrasti [28] = test: Herbicidal activity, postemergence test; conditions: post; sprayed onto seedling plants, 800 g of active material per hectare; evaluated 2 weeks after treatment
Procedure: as §1, §2, §3, §4, §5, §6

Triticum aestivum [29] = test: Herbicidal activity, postemergence test; conditions: post; sprayed onto seedling plants, 800 g of active material per hectare; evaluated 2 weeks after treatment
Procedure: as §1, §2, §3, §4, §5, §6

Ipomoea hederacea [30] = test: Herbicidal activity, postemergence test; conditions: post; sprayed onto seedling plants, 800 g of active material per hectare; evaluated 2 weeks after treatment
Procedure: as §1, §2, §3, §4, §5, §6

Stellaria media [31] = test: Herbicidal activity, postemergence test; conditions: post; sprayed onto seedling plants, 800 g of active material per hectare; evaluated 2 weeks after treatment
Procedure: as §1, §2, §3, §4, §5, §6

Hordeum vulgare [32] = test: Herbicidal activity, postemergence test; conditions: post; sprayed onto seedling plants, 800 g of active material per hectare; evaluated 2 weeks after treatment
Procedure: as §1, §2, §3, §4, §5, §6

Papaver rhoeas [33] = test: Herbicidal activity, postemergence test; conditions: post; sprayed onto seedling plants, 800 g of active material per hectare; evaluated 2 weeks after treatment
Procedure: as §1, §2, §3, §4, §5, §6

Alopecurus myosuroides [34] = test: Herbicidal activity, postemergence test; conditions: post; sprayed onto seedling plants, 800 g of active material per hectare; evaluated 2 weeks after treatment
Procedure: as §1, §2, §3, §4, §5, §6

Lamium purpureum [35] = test: Herbicidal activity, postemergence test; conditions: post; sprayed onto seedling plants, 800 g of active material per hectare; evaluated 2 weeks after treatment
Procedure: as §1, §2, §3, §4, §5, §6

Chenopodium album [36] = test: Herbicidal activity, postemergence test; conditions: post; sprayed onto seedling plants, 800 g of active material per hectare; evaluated 2 weeks after treatment
Procedure: as §1, §2, §3, §4, §5, §6

`O=C(NCc1cccs1)c1nnc(-c2ccc(F)cc2)o1` [Example 8] was tested, and the “AMBEL control rating (0-9)” value (Ambrosia artemisifolia [1]) was 3 (moderate effect), the “MATIN control rating (0-9)” value (Matricaria inodora [2]) was 5 (definite injury) and the “SETVI control rating (0-9)” value (Setaria viridis [3]) was 3 (moderate effect). The “ZEAMX control rating (0-9)” value (Zea mays [4]) was 2 (slight effect), the “AMARE control rating (0-9)” value (Amaranthus retroflexus [5]) was 9 (complete kill) and the “VERPE control rating (0-9)” value (Veronica persica [6]) was 7 (good herbicidal effect). For the same molecule, the “GOSHI control rating (0-9)” value (Gossypium hirsutum [7]) was 2 (slight effect), the “GALAP control rating (0-9)” value (Galium aparine [8]) was 0 (no effect) and the “GLXMA control rating (0-9)” value (Glycine max [9]) was 2 (slight effect). The “ABUTH control rating (0-9)” value (Abutilon theophrasti [10]) was 0 (no effect), the “TRZAW control rating (0-9)” value (Triticum aestivum [11]) was 0 (no effect) and the “IPOHE control rating (0-9)” value (Ipomoea hederacea [12]) was 0 (no effect). For the same molecule, the “STEME control rating (0-9)” value (Stellaria media [13]) was 7 (good herbicidal effect), the “HORVW control rating (0-9)” value (Hordeum vulgare [14]) was 0 (no effect) and the “PAPRH control rating (0-9)” value (Papaver rhoeas [15]) was 9 (complete kill). The “ALOMY control rating (0-9)” value (Alopecurus myosuroides [16]) was 0 (no effect), the “LAMPU control rating (0-9)” value (Lamium purpureum [17]) was 0 (no effect) and the “CHEAL control rating (0-9)” value (Chenopodium album [18]) was 5 (definite injury). The “AMBEL control rating (0-9)” value (Ambrosia artemisifolia [19]) was 3 (moderate effect), the “MATIN control rating (0-9)” value (Matricaria inodora [20]) was 2 (slight effect) and the “SETVI control rating (0-9)” value (Setaria viridis [21]) was 0 (no effect). The “ZEAMX control rating (0-9)” value (Zea mays [22]) was 0 (no effect), the “AMARE control rating (0-9)” value (Amaranthus retroflexus [23]) was 8 (approaching complete kill) and the “VERPE control rating (0-9)” value (Veronica persica [24]) was 4 (injury). For the same molecule, the “GOSHI control rating (0-9)” value (Gossypium hirsutum [25]) was 0 (no effect), the “GALAP control rating (0-9)” value (Galium aparine [26]) was 0 (no effect) and the “GLXMA control rating (0-9)” value (Glycine max [27]) was 0 (no effect). For the same molecule, the “ABUTH control rating (0-9)” value (Abutilon theophrasti [28]) was 3 (moderate effect), the “TRZAW control rating (0-9)” value (Triticum aestivum [29]) was 0 (no effect) and the “IPOHE control rating (0-9)” value (Ipomoea hederacea [30]) was 0 (no effect). For the same molecule, the “STEME control rating (0-9)” value (Stellaria media [31]) was 5 (definite injury), the “HORVW control rating (0-9)” value (Hordeum vulgare [32]) was 0 (no effect) and the “PAPRH control rating (0-9)” value (Papaver rhoeas [33]) was 3 (moderate effect). For the same molecule, the “ALOMY control rating (0-9)” value (Alopecurus myosuroides [34]) was 0 (no effect), the “LAMPU control rating (0-9)” value (Lamium purpureum [35]) was 0 (no effect) and the “CHEAL control rating (0-9)” value (Chenopodium album [36]) was 4 (injury).
